Experimental findings from US3994882A, “Nitrofuran derivatives, process for the preparation thereof and compositions containing same as active ingredient” (Kabushiki Kaisha Ueno Seiyaku Oyo Kenkyujo, priority 1974, dated 1976) are described below.

The term MIC denotes the least concentration at which growth counts as inhibited.

Experiment [1] relates to Salmonella pullorum NIAH 5159. Put plainly: Effectiveness in preventing infection by Salmonella pullorum in chicks (Table 6). In kind it is in vivo. As to conditions: 7 days, chicks with germs isolated / chicks tested. On the procedure: A culture liquid obtained by cultivating Salmonella pullorum NIAH 5159 in a YCCB culture medium for 20 hours at 37° C. was injected into the cloaca of 2-day-old chicks at the rate of 0.2 ml per chick. Nitrofuran derivatives in total amounts indicated below were then mixed with the feed, and the so mixed feed was fed to the chicks for 7 days. The chicks were then sacrificed, and the liver and/or spleen were homogenized, following which the product was cultivated for 48 hours at 37° C. in a YCCB culture medium in customary manner. The expression, "rate of germ isolation" used in the table has the following meaning. For instance, the value 4/10 means the germs were isolated from four out of the ten chicks submitted to the test.

The test system of the next experiment is Salmonella purollum. Put plainly: Minimum growth inhibiting concentration, microorganisms that infect domestic animals (Table 2). In kind it is cell-based. The conditions noted are these: 42 strains, TSB-Agar, 48 hours. On the procedure: (§1) The minimum growth inhibiting concentrations were measured under identical conditions as in the case of Table 1, except that culture media indicated above were used and, in the case of that asterisked, the culture was carried out for 5 days, while the others were cultivated for 48 hours.

The test system of the next experiment is Mycolasma galli-septicum. The description is as above. As to conditions: 120 h, 6 strains, Hofstad, 5 days. In kind it is cell-based. As for the experimental part: as §1
For the next experiment, the system named is Staphylococcus aureus. The description is as above. In kind it is cell-based. The conditions noted are these: 15 strains, TSB-agar, 48 hours. As for the experimental part: as §1
Experiment [2] has as its system Pasteurella multocida Kobe-5. The experiment is described as above. In kind it is cell-based. As to conditions: KOBE5, TSB-Agar 10% rabbit blood added, 48 hours. As for the experimental part:
as §1

For a further experiment, the system named is Hemophilus galinalum. The experiment is described as above. In kind it is cell-based. As to conditions: 2 strains, TSB-Agar 10% rabbit blood added, 48 hours. On the procedure: as §1
The subject of the next experiment is Escherichia coli. Described as above. In kind it is cell-based. The conditions noted are these: 36 strains, TSB-Agar, 48 hours. On the procedure: as §1
The subject of experiment [3] is Bordetella bronchiseptica. The description is as above. In kind it is cell-based. The conditions noted are these: 4 strains, Heart infusion Agar, 48 hours. As for the experimental part: as §1
Experiment [4] has as its system Erysiperothrix rhusiopatiae Agata. The description is as above. In kind it is cell-based. The conditions noted are these: TSB-Agar 10% rabbit blood added, 48 hours. On the procedure: as §1
The test system of the next experiment is vibroid ulcers. Put plainly: Medicinal bath of young yellowtail with disease seeming to be vibroid ulcers. In kind it is in vivo. As to conditions: of 30 fishes; 10 ppm seawater bath 10 minutes; reared further 20 days; untreated group 3 survivors. As for the experimental part: In raising young yellowtail of a body length about 10-15 cm, since a disease seeming to be vibroid ulcers started to appear, 90 of the fishes were collected and divided into three groups. The first group of 30 fishes were reared as heretofore practiced with no change. On the other hand, the second and third groups of 30 fishes were placed for 10 minutes in respectively medicinal baths containing seawater solutions of 10 ppm of the compound of Example 1 ##SPC40##
and the compound of Example 9 ##SPC41##
following which the respective groups of fishes were returned to normal seawater where they were reared for a further 20 days. The number of fishes surviving in the case of the first group was three fishes, whereas in the case of the second and third groups, the numbers of fishes surviving were 26 and 25 fishes, respectively.

In brackets after ≈: the same amount, converted by molar mass.

On to `O=C(NCCO)c1ccc(C=Cc2ccc([N+](=O)[O-])o2)cc1` [Example 1, 2-Para-[2'-(5"-nitro-2"-furyl)-vinyl]-benzoylaminoethanol], for which the “Rate of germ isolation” value in experiment [1] (50 ppm in feed) is reported as 4/10; in experiment [1] (100 ppm in feed), 4/10; in experiment [1] (200 ppm in feed), 3/10; in [1] (400 ppm in feed), 2/10; in experiment [1] (800 ppm in feed), 0/10. Besides, the MIC in the experiment on Salmonella purollum is 1.6 to 12.5 µg/mL (≈ 5.29 to 41.4 µM); with Mycolasma galli-septicum, 0.1 µg/mL (≈ 0.331 µM); in the experiment on Staphylococcus aureus it was 0.2 to 25 µg/mL (≈ 0.662 to 82.7 µM); in experiment [2], 0.15 µg/mL (≈ 0.496 µM); against Hemophilus galinalum, 0.04 to 1.5 µg/mL (≈ 0.132 to 4.96 µM); against Escherichia coli, 0.5 to 25 µg/mL (≈ 1.65 to 82.7 µM). Besides, the minimal inhibitory concentration (MIC) in experiment [3] stood at 25 µg/mL (≈ 82.7 µM); in experiment [4], 0.07 µg/mL (≈ 0.232 µM). Besides, in the experiment on vibroid ulcers, the “Number of fishes surviving” value is on record as 26 fishes.

For `O=C(NCC(O)CO)c1ccc(C=Cc2ccc([N+](=O)[O-])o2)cc1` (stereo not shown) [Example 9, 3-Para-[2'-(5"-nitro-2"-furyl)-vinyl]-benzoylamino-1,2-propanediol], the “Rate of germ isolation” value in experiment [1] (50 ppm in feed) is on record as 4/10; in experiment [1] (100 ppm in feed) it was 4/10; in experiment [1] (200 ppm in feed), 3/10; in experiment [1] (400 ppm in feed), 2/10; in experiment [1] (800 ppm in feed) it was 1/10. Moreover, the minimal inhibitory concentration (MIC) with Salmonella purollum was 1.6 to 25 µg/mL (≈ 4.81 to 75.2 µM); with Mycolasma galli-septicum, 0.2 µg/mL (≈ 0.602 µM); against Staphylococcus aureus, 0.2 to 25 µg/mL (≈ 0.602 to 75.2 µM); in experiment [2] it was 0.08 µg/mL (≈ 0.241 µM); with Hemophilus galinalum it was 0.1 to 1.5 µg/mL (≈ 0.301 to 4.51 µM); with Escherichia coli it was 0.5 to 12.5 µg/mL (≈ 1.5 to 37.6 µM). For the same compound, the minimum inhibitory concentration (MIC) in experiment [3] came to 25 µg/mL (≈ 75.2 µM); in experiment [4] it was 0.15 µg/mL (≈ 0.451 µM). The “Number of fishes surviving” value with vibroid ulcers came to 25 fishes.
